According to PubChem BioAssay (NCI):
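A five-concentration, 48-hour dose response in 96-well plates underlies each endpoint, interpolated linearly between surrounding concentrations. Abbreviation: GI50, concentration required for 50% inhibition of growth. At the TGI there is no net growth.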

Tests used:
Assay in all cases: NCI anticancer screen, dose series, 48 h
RPMI-8226 leukemia = system: RPMI-8226 leukemia
PC-3 prostate = system: PC-3 prostate
HL-60(TB) leukemia = system: HL-60(TB) leukemia
SF-295 CNS = system: SF-295 CNS
EKVX NSCLC = system: EKVX NSCLC
A498 renal = system: A498 renal
CAKI-1 renal = system: CAKI-1 renal
SK-MEL-5 melanoma = system: SK-MEL-5 melanoma
SNB-75 CNS = system: SNB-75 CNS
SF-539 CNS = system: SF-539 CNS
DU-145 prostate = system: DU-145 prostate
HCT-15 colon = system: HCT-15 colon
SN12C renal = system: SN12C renal
UO-31 renal = system: UO-31 renal
TK-10 renal = system: TK-10 renal
K-562 leukemia = system: K-562 leukemia
NCI/ADR-RES ovarian = system: NCI/ADR-RES ovarian
SNB-19 CNS = system: SNB-19 CNS
SK-OV-3 ovarian = system: SK-OV-3 ovarian
MCF7 breast = system: MCF7 breast
786-0 renal = system: 786-0 renal
OVCAR-5 ovarian = system: OVCAR-5 ovarian
OVCAR-4 ovarian = system: OVCAR-4 ovarian
SK-MEL-28 melanoma = system: SK-MEL-28 melanoma
MDA-MB-435 = system: MDA-MB-435
HCT-116 colon = system: HCT-116 colon
UACC-257 melanoma = system: UACC-257 melanoma
HOP-92 NSCLC = system: HOP-92 NSCLC
MDA-MB-231 breast = system: MDA-MB-231 breast
UACC-62 melanoma = system: UACC-62 melanoma
KM12 colon = system: KM12 colon
HCC-2998 colon = system: HCC-2998 colon
ACHN renal = system: ACHN renal
CCRF-CEM leukemia = system: CCRF-CEM leukemia
RXF 393 renal = system: RXF 393 renal
BT-549 breast = system: BT-549 breast
HT29 colon = system: HT29 colon
NCI-H522 lung = system: NCI-H522 lung
T-47D breast = system: T-47D breast
NCI-H23 lung = system: NCI-H23 lung
SW-620 colon = system: SW-620 colon
IGROV1 ovarian = system: IGROV1 ovarian
A549 NSCLC = system: A549 NSCLC
MOLT-4 leukemia = system: MOLT-4 leukemia
SF-268 CNS = system: SF-268 CNS
U251 CNS = system: U251 CNS
HOP-62 NSCLC = system: HOP-62 NSCLC
OVCAR-8 ovarian = system: OVCAR-8 ovarian
NCI-H226 lung = system: NCI-H226 lung
COLO 205 colon = system: COLO 205 colon
M14 melanoma = system: M14 melanoma
NCI-H460 lung = system: NCI-H460 lung
HS 578T breast = system: HS 578T breast

Compound: COC[C@]12CCC(C)(C)C[C@H]1C1=CC[C@@H]3[C@@]4(C)CCCNC(C)(C)[C@@H]4CC[C@@]3(C)[C@]1(C)CC2
- GI50 (RPMI-8226 leukemia): 1310 nM
- TGI (RPMI-8226 leukemia): 3650 nM
- GI50 (PC-3 prostate): 1310 nM
- TGI (PC-3 prostate): 2640 nM
- GI50 (HL-60(TB) leukemia): 1430 nM
- TGI (HL-60(TB) leukemia): 3870 nM
- GI50 (SF-295 CNS): 1730 nM
- TGI (SF-295 CNS): 3210 nM
- GI50 (EKVX NSCLC): 1640 nM
- TGI (EKVX NSCLC): 3120 nM
- GI50 (A498 renal): 1710 nM
- TGI (A498 renal): 3230 nM
- GI50 (CAKI-1 renal): 1820 nM
- TGI (CAKI-1 renal): 3560 nM
- GI50 (SK-MEL-5 melanoma): 1580 nM
- TGI (SK-MEL-5 melanoma): 3050 nM
- GI50 (SNB-75 CNS): 1530 nM
- TGI (SNB-75 CNS): 3410 nM
- GI50 (SF-539 CNS): 1560 nM
- TGI (SF-539 CNS): 3050 nM
- GI50 (DU-145 prostate): 1810 nM
- TGI (DU-145 prostate): 3370 nM
- GI50 (HCT-15 colon): 1410 nM
- TGI (HCT-15 colon): 2870 nM
- GI50 (SN12C renal): 1510 nM
- TGI (SN12C renal): 3070 nM
- GI50 (UO-31 renal): 1410 nM
- TGI (UO-31 renal): 2790 nM
- GI50 (TK-10 renal): 1810 nM
- TGI (TK-10 renal): 3530 nM
- GI50 (K-562 leukemia): 350 nM
- TGI (K-562 leukemia): 4650 nM
- GI50 (NCI/ADR-RES ovarian): 1730 nM
- TGI (NCI/ADR-RES ovarian): 3480 nM
- GI50 (SNB-19 CNS): 1760 nM
- TGI (SNB-19 CNS): 3300 nM
- GI50 (SK-OV-3 ovarian): 1800 nM
- TGI (SK-OV-3 ovarian): 3390 nM
- GI50 (MCF7 breast): 1250 nM
- TGI (MCF7 breast): 2820 nM
- GI50 (786-0 renal): 1610 nM
- TGI (786-0 renal): 3300 nM
- GI50 (OVCAR-5 ovarian): 1670 nM
- TGI (OVCAR-5 ovarian): 3130 nM
- GI50 (OVCAR-4 ovarian): 1700 nM
- TGI (OVCAR-4 ovarian): 3340 nM
- GI50 (SK-MEL-28 melanoma): 1670 nM
- TGI (SK-MEL-28 melanoma): 3070 nM
- GI50 (MDA-MB-435): 1660 nM
- TGI (MDA-MB-435): 3130 nM
- GI50 (HCT-116 colon): 1090 nM
- TGI (HCT-116 colon): 2480 nM
- GI50 (UACC-257 melanoma): 1910 nM
- TGI (UACC-257 melanoma): 3820 nM
- GI50 (HOP-92 NSCLC): 1170 nM
- TGI (HOP-92 NSCLC): 2580 nM
- GI50 (MDA-MB-231 breast): 1890 nM
- TGI (MDA-MB-231 breast): 3620 nM
- GI50 (UACC-62 melanoma): 1620 nM
- TGI (UACC-62 melanoma): 3120 nM
- GI50 (KM12 colon): 1790 nM
- TGI (KM12 colon): 3480 nM
- GI50 (HCC-2998 colon): 1310 nM
- TGI (HCC-2998 colon): 2760 nM
- GI50 (ACHN renal): 1730 nM
- TGI (ACHN renal): 3120 nM
- GI50 (CCRF-CEM leukemia): 1260 nM
- TGI (CCRF-CEM leukemia): 3190 nM
- GI50 (RXF 393 renal): 1370 nM
- TGI (RXF 393 renal): 2880 nM
- GI50 (BT-549 breast): 1680 nM
- TGI (BT-549 breast): 3110 nM

Compound: ClC(Cl)c1nc(-c2cccs2)n2nc(-c3ccccc3)cc2n1
- GI50 (RPMI-8226 leukemia): 472 nM
- TGI (RPMI-8226 leukemia): 2560 nM
- GI50 (PC-3 prostate): 1180 nM
- TGI (PC-3 prostate): 3750 nM
- GI50 (HL-60(TB) leukemia): 267 nM
- TGI (HL-60(TB) leukemia): 1310 nM
- GI50 (HT29 colon): 355 nM
- TGI (HT29 colon): 1750 nM
- GI50 (SF-295 CNS): 801 nM
- TGI (SF-295 CNS): 3390 nM
- GI50 (NCI-H522 lung): > 100000 nM
- TGI (NCI-H522 lung): > 100000 nM
- GI50 (T-47D breast): 1510 nM
- TGI (T-47D breast): 5720 nM
- GI50 (A498 renal): 1250 nM
- TGI (A498 renal): 2530 nM
- GI50 (NCI-H23 lung): 1470 nM
- TGI (NCI-H23 lung): 4440 nM
- GI50 (CAKI-1 renal): 1130 nM
- TGI (CAKI-1 renal): 4010 nM
- GI50 (SK-MEL-5 melanoma): > 100000 nM
- TGI (SK-MEL-5 melanoma): > 100000 nM
- GI50 (SW-620 colon): 681 nM
- TGI (SW-620 colon): 3490 nM
- GI50 (SF-539 CNS): 1100 nM
- TGI (SF-539 CNS): 2940 nM
- GI50 (DU-145 prostate): 293 nM
- TGI (DU-145 prostate): 770 nM
- GI50 (HCT-15 colon): 1060 nM
- TGI (HCT-15 colon): 3630 nM
- GI50 (IGROV1 ovarian): 2650 nM
- TGI (IGROV1 ovarian): > 100000 nM
- GI50 (SN12C renal): > 100000 nM
- TGI (SN12C renal): > 100000 nM
- GI50 (UO-31 renal): 1190 nM
- TGI (UO-31 renal): 4520 nM
- GI50 (TK-10 renal): 3230 nM
- TGI (TK-10 renal): 6250 nM
- GI50 (A549 NSCLC): 680 nM
- TGI (A549 NSCLC): 2730 nM
- GI50 (MOLT-4 leukemia): 2820 nM
- TGI (MOLT-4 leukemia): > 100000 nM
- GI50 (K-562 leukemia): 2130 nM
- TGI (K-562 leukemia): > 100000 nM
- GI50 (NCI/ADR-RES ovarian): 912 nM
- TGI (NCI/ADR-RES ovarian): 4090 nM
- GI50 (SNB-19 CNS): 635 nM
- TGI (SNB-19 CNS): 3710 nM
- GI50 (SF-268 CNS): 1600 nM
- TGI (SF-268 CNS): 5180 nM
- GI50 (SK-OV-3 ovarian): 1890 nM
- TGI (SK-OV-3 ovarian): 6660 nM
- GI50 (U251 CNS): 326 nM
- TGI (U251 CNS): 1820 nM
- GI50 (HOP-62 NSCLC): 419 nM
- TGI (HOP-62 NSCLC): 2990 nM
- GI50 (MCF7 breast): 425 nM
- TGI (MCF7 breast): 3530 nM
- GI50 (786-0 renal): 2370 nM
- TGI (786-0 renal): > 100000 nM
- GI50 (OVCAR-8 ovarian): 1150 nM
- TGI (OVCAR-8 ovarian): > 100000 nM
- GI50 (NCI-H226 lung): > 100000 nM
- TGI (NCI-H226 lung): > 100000 nM
- GI50 (COLO 205 colon): 476 nM
- TGI (COLO 205 colon): 2070 nM
- GI50 (OVCAR-5 ovarian): 1740 nM
- TGI (OVCAR-5 ovarian): 5120 nM
- GI50 (OVCAR-4 ovarian): 2020 nM
- TGI (OVCAR-4 ovarian): 5060 nM
- GI50 (SK-MEL-28 melanoma): 1690 nM
- TGI (SK-MEL-28 melanoma): 3220 nM
- GI50 (MDA-MB-435): 1470 nM
- TGI (MDA-MB-435): 2990 nM
- GI50 (M14 melanoma): 4350 nM
- TGI (M14 melanoma): > 100000 nM
- GI50 (HCT-116 colon): 1300 nM
- TGI (HCT-116 colon): 6870 nM
- GI50 (UACC-257 melanoma): 2400 nM
- TGI (UACC-257 melanoma): 5680 nM
- GI50 (HOP-92 NSCLC): 444 nM
- TGI (HOP-92 NSCLC): 2480 nM
- GI50 (MDA-MB-231 breast): 500 nM
- TGI (MDA-MB-231 breast): 2750 nM
- GI50 (NCI-H460 lung): 299 nM
- TGI (NCI-H460 lung): 974 nM
- GI50 (KM12 colon): 2480 nM
- TGI (KM12 colon): 8340 nM
- GI50 (HCC-2998 colon): 464 nM
- TGI (HCC-2998 colon): 1740 nM
- GI50 (ACHN renal): 274 nM
- TGI (ACHN renal): 1050 nM
- GI50 (CCRF-CEM leukemia): 5920 nM
- TGI (CCRF-CEM leukemia): > 100000 nM
- GI50 (RXF 393 renal): 477 nM
- TGI (RXF 393 renal): 1690 nM
- GI50 (BT-549 breast): 8730 nM
- TGI (BT-549 breast): > 100000 nM
- GI50 (HS 578T breast): 1600 nM
- TGI (HS 578T breast): 4710 nM
